Oligonucleotides are written 5' to 3', each unit as a sugar letter and its base; * is a phosphorothioate linkage, no mark a phosphodiester; rarer units and linkages stand in square brackets, end groups in braces. Plain capitals give the bases only. d = 2'-deoxy (DNA); {P} = phosphate
Tests used:
[1] = test system: serine 15-phosphorylated p53, E2F1 (cells lacking functional ATM); test: Western blot of p53 serine 15 phosphorylation and E2F1 in AT fibroblasts; format: cell-based, human; settings: 40 μM; 48 hours
Protocol: Because the serine 15 site on p53 is known to be phosphorylated in an ATM-dependent manner after exposure to ionizing radiation (IR), we wished to examine the role of ATM in E2F1 induction and p53 serine 15 phosphorylation in response to the 11 mer-1. Fibroblasts from a patient with ataxia telangiectasia (AT) known to lack functional ATM protein, and age-matched normal control fibroblasts (N) were treated with either diluent, 40 μM 11mer-1, sham irradiation or IR (10 Gy). Cells were collected 3 hours (sham or IR) or 48 hours (diluent, 11mer-1) for western blot analysis to detect serine 15-phosphorylated p53 and total p53. In normal fibroblasts, the 11mer-1 induced a 10–15 fold increase in the level p53 phosphorylation on serine 15 compared to diluent-treated controls.

[2] = test system: BP DNA adducts (CAT reporter plasmid) in human keratinocytes; test: Repair of BP-damaged CAT reporter plasmid in keratinocytes; format: cell-based; settings: 100 μM 48 hours; ~25 or ~50 adducts/plasmid
Protocol: The pCAT vector (Promega) was treated with benzo[a]pyrene-7,8-diol-9,10-epoxide (BP) as described (Athas et al. Cancer Res 1991) to produce less damaged and more damaged plasmids, previously shown to be instructive in studies examining different repair capacities in human cells. Based on the incorporation of ^3H-BPDE into the DNA, the less damaged plasmid contained 25 adducts per 5 kb plasmid and the more damaged plasmid contained 50 adducts. This non-replicating vector contains the chloramphenicol acetyltransferase gene under control of SV40 promoter and enhancer sequences. […] CAT enzyme activity was determined using the liquid scintillation counting protocol and components of the assay system kit (Promega). ^14C-labeled chloramphenicol[50–60 mCi(1.85–2.22 GBq)/mmol] was purchased from New England Nuclear (Boston, Mass.). […]
To measure the repair of BP DNA adducts, non-replicating BP-damaged reporter plasmid system containing the bacterial chloramphenicol acetyltransferase (CAT) gene was used as described in Example 8. With first passage human keratinocytes, the transfection efficiency, as measured by the cotransfected β-galactosidase expression vector, was 40–70%.

[3] = test system: LacZ reporter plasmid; test: UV-induced mutation frequency in LacZ transgenic mice; format: in vivo
Excerpt: Transgenic mice carrying multiple genomic copies of a LacZ reporter plasmid were used. One hundred μM pTpT in polypropyleneglycol was applied to one ear and vehicle alone to the other ear, daily for four days. On the fifth day, both ears were exposed to 100 mJ/cm^2 UVB light. This procedure was repeated weekly for 3, 5 or 7 weeks (3 mice/group). One week after the final irradiation, LacZ plasmids were harvested from the ear epidermis. Using methods well known in the art, the plasmids were recovered from genomic DNA by restriction enzyme digestion and specific binding to the LacI protein. Mutant LacZ plasmids were positively selected by transfection into bacteria and growth on selective medium and the mutation frequency was determined.

Row | Substance | increase in p53 phosphorylation on serine 15 [1] [%] | CAT expression relative to undamaged control vector, compared to diluent [2] | mutation frequency ([3]; 100 μM topical, weekly UVB, after 3 weeks (diluent 293)) | lower mutation frequency than diluent treated skin ([3]; after 3, 5, and 7 weeks) | mutation frequency ([3]; after 5 weeks (diluent 216)) | mutation frequency ([3]; after 7 weeks (diluent 322))
1 | pGTTAGGGTTAG (DNA {P}-dGdTdTdAdGdGdGdTdTdAdG) [SEQ ID NO: 5] | < 50 |  |  |  |  | 
2 | thymidine dinucleotide [pTpT] |  | approximate doubling of CAT expression | 200 | 20–30% | 155 | 261

Source: patent US7033829B2, “Method to inhibit cell growth using oligonucleotides” (Trustees of Boston University, priority 2000, dated 2006)
